From US10105446B2, “Pharmaceutical compositions for high-capacity targeted delivery” (Wake Forest University Health Sciences, priority 2013, dated 2018)

Experiments:
C4-2 cells = assay: Cytotoxicity, CellTiter-Glo cell viability assay, C4-2 cells; format: cell-based
Experimental: (§1) PC3, C4-2, and C4-2Luc cells were seeded at a density of 3,000 cells/well in 96-well plates and incubated at 37° C. under 5% CO2. Next day, the cells were treated with Dox, DAC+Dox, or DAC-D for 24 h. Next day the treatment was removed, cells were washed once with warm fresh media and incubated for another 48 h in fresh media. Cell counts were measured indirectly by measuring the ATP amounts using CellTiter-Glo® luminescent cell viability assay (Promega, Madison, Wis.) according to the manufacturer's protocol. In co-culture experiments, PC3 and C4-2Luc cells were each seeded at a density of 1,500 cells/well in 96-well plates. Co-cultured cells were treated with Dox, DAC+Dox, or DAC-D and cell viability was also measured using the CellTiter-Glo® assay. Luciferase levels were measured for co-cultures of PC3 and C4-2Luc cells using a luciferase reporter assay system (Promega). PC3 and C4-2Luc cells were seeded and treated as described above and the cells were lysed and luciferase activity was measured according to the manufacturer's protocol.

PC3 cells = assay: Cytotoxicity, CellTiter-Glo cell viability assay, PC3 cells; format: cell-based
Experimental: as §1

PSMA+ C4-2 cells = assay: Uptake/internalization by confocal microscopy and flow cytometry, PSMA+ C4-2 cells; format: cell-based
Experimental: (§2) Cells were seeded at 20,000 cells/well in 8-well Lab-Tek® II chambered #1.5 German coverglass system (Thermo Fisher Sci., Waltham, Mass.), and incubated at 37° C. under 5% CO2 for 2 days. Cells were incubated with 1 μM of DAC in which the dA16 aptamer was labeled with Quasar 570 at the 5′-terminus and the T16 aptamer was labeled with Quasar 670 dyes in RPMI with 10% FBS for 2 h at 37° C. Cells were washed with fresh media and DPBS, followed by a 5 min fixation with 3.7% formaldehyde in DPBS. Cells were visualized using a Zeiss LSM510 confocal microscope (Carl Zeiss, Oberkochen, Germany). Cells were also incubated with 1 μM of DAC-D (or the non-covalent DAC+D), for 2 h. DAC were only labeled with Quasar 670 for these studies as the Quasar 570 emission would interfere with the Dox emission. Cells were washed, fixed, and imaged using identical procedures.
(§3) PC3 and C4-2 cells were incubated with 1 μM of DAC for 2 h at 37° C. Dimers were fluorescently labeled with either Quasar 570 or 670 alone, or both. Cells were trypsinized and washed with PBS twice. Cells re-suspended in PBS were analyzed to measure their intracellular fluorescence using the Accuri™ C6 flow cytometer (BD Biosciences).

PSMA-null PC3 cells = assay: Uptake/internalization by confocal microscopy and flow cytometry, PSMA-null PC3 cells; format: cell-based; settings: 1 μM, 2 h, confocal microscopy
Experimental: as §2, §3

[1] = cited from earlier work
[2] = Temperature-dependent UV melting (thermal stability of dimeric aptamer complexes); format: physicochemical; settings: UV absorbance at 260 nm, heating 0.7° C./min
Experimental: Temperature-dependent UV absorption spectra were obtained using a Beckman Coulter DU-800 UV-Vis spectrophotometer. Samples of DAC, DAC-D, and DAC+D were prepared. The temperature was increased at a rate of 0.7° C./min over the range 20-85° C. and absorbance at 260 nm was measured for each sample, (400 μL, 1 μM) concentration.

[3] = Determination of Dox:DNA ratios by absorbance; format: physicochemical
Experimental: DNA Ratios: DNA samples were prepared in dH2O, and absorbencies were measured from 200-800 nm using a Beckman Coulter DU800 spectrophotometer. A standard curve of Dox was established between 1 μM and 10 μM by using absorbencies at 494 nm at 85° C. To assess the amount of Dox covalently bound to DNA, the samples were heated to 85° C. before measuring the absorbance at 494 nm and 260 nm. The 260 nm wavelength was used to determine the DNA content in the sample and to determine the Dox:DNA ratio.

Molecule | reduction in viability (C4-2 cells; 2 μM Dox, 24 h treatment + 48 h growth, cell line not specified in the sentence (PC3 and C4-2)) | cytotoxicity (in words) (C4-2 cells; C4-2 cells) | cytotoxicity (in words) (PC3 cells) | Dox internalization / nuclear accumulation (PSMA+ C4-2 cells; 1 μM, 2 h, confocal microscopy, C4-2 cells) | Dox internalization / nuclear accumulation (PSMA-null PC3 cells; PC3 cells) | pKa of the doxorubicin amino group [1] | dissociation temperature [2] | uptake of fluorescently-labeled aptamer (PSMA+ C4-2 cells; 1 μM, 2 h, Quasar 570/670 labels, confocal microscopy) | uptake after pre-incubation with J591 PSMA-specific monoclonal antibody (PSMA+ C4-2 cells; C4-2 cells pre-incubated with J591) | uptake of fluorescently-labeled aptamer (PSMA-null PC3 cells; Quasar 570/670 labels) | calc ratio (Dox bound per DAC) ([3]; Dox:DAC ratio 16x) | calc ratio (Dox bound per DAC) ([3]; Dox:DAC ratio 24x) | calc ratio (Dox bound per DAC) ([3]; Dox:DAC ratio 32x) | molar equivalents of doxorubicin that can be covalently bound to each DAC ([3]; titration)
COc1cccc2c1C(=O)c1c(O)c3c(c(O)c1C2=O)C[C@@](O)(C(=O)CO)C[C@@H]3O[C@H]1C[C@H](N)[C@H](O)[C@H](C)O1 [Dox, doxorubicin] | ~90% | highly cytotoxic | highly cytotoxic | readily accumulated | readily accumulated | 8.2 | – | – | – | – | – | – | – | –
DAC: Dimer of PSMA DNA aptamer SZTI01 annealed through dCGGCA16GCCG / dCGGCT16GCCG tails (SEQ ID NO:5, 6) (chain 1 CGGCAAAAAAAAAAAAAAAAGCCG; chain 2 CGGCTTTTTTTTTTTTTTTTGCCG; DNA, backbone and methylation of C not given here; tails of DNA aptamer dimer, further chemistry not fully specified) | – | – | – | – | – | – | ~58 °C | strong signal | attenuated | minimal uptake | 10.8 | 14.18 | 13.7156 | 14 molar equivalents
